Test results reported in the supplement of paper PMC10307832.

What was measured:
Assay in all cases: relative viability (nuclei count vs DMSO), 5 days (fraction); higher = more cells survive
GW-2580 + Foretinib = compound: COC1=CC=C(C=C1)COC2=C(C=C(C=C2)CC3=CN=C(N=C3N)N)OC [GW-2580] + COc1cc2c(Oc3ccc(NC(=O)C4(C(=O)Nc5ccc(F)cc5)CC4)cc3F)ccnc2cc1OCCCN1CCOCC1 [Foretinib] (partner 0.25 µM)
Method in brief: (§1)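 For relative viability, nuclei counts in treated wells were divided by those in vehicle wells. Lung cancer cell lines had been pin-tool dosed in 1536-well plates the day after seeding and cultured for 5 days, then fixed and stained in one step (final 0.05% Triton X-100, 1% formaldehyde, 1 ug/ml Hoechst) and imaged at 4×. Doses were one drug alone or a fixed anchor-drug dose plus five library-drug doses (not always all listed) in √10 steps, and values are duplicate-plate medians.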

Fedratinib + Palbociclib = compound: Cc1cnc(Nc2ccc(OCCN3CCCC3)cc2)nc1Nc1cccc(S(=O)(=O)NC(C)(C)C)c1 [Fedratinib] + CC(=O)c1c(C)c2cnc(Nc3ccc(N4CCNCC4)cn3)nc2n(C2CCCC2)c1=O [Palbociclib] (partner 0.5 µM)
Method in brief: as §1

Fedratinib + Olaparib = compound: Cc1cnc(Nc2ccc(OCCN3CCCC3)cc2)nc1Nc1cccc(S(=O)(=O)NC(C)(C)C)c1 [Fedratinib] + O=C(c1cc(Cc2n[nH]c(=O)c3ccccc23)ccc1F)N1CCN(C(=O)C2CC2)CC1 [Olaparib] (partner 8 µM)
Method in brief: as §1

Fedratinib + Trametinib = compound: Cc1cnc(Nc2ccc(OCCN3CCCC3)cc2)nc1Nc1cccc(S(=O)(=O)NC(C)(C)C)c1 [Fedratinib] + CC(=O)Nc1cccc(-n2c(=O)n(C3CC3)c(=O)c3c(Nc4ccc(I)cc4F)n(C)c(=O)c(C)c32)c1 [Trametinib] (partner 0.02 µM)
Method in brief: as §1

Fedratinib + Pictilisib = compound: Cc1cnc(Nc2ccc(OCCN3CCCC3)cc2)nc1Nc1cccc(S(=O)(=O)NC(C)(C)C)c1 [Fedratinib] + CS(=O)(=O)N1CCN(Cc2cc3nc(-c4cccc5[nH]ncc45)nc(N4CCOCC4)c3s2)CC1 [Pictilisib] (partner 1 µM)
Method in brief: as §1

GW-2580 + Palbociclib = compound: COC1=CC=C(C=C1)COC2=C(C=C(C=C2)CC3=CN=C(N=C3N)N)OC [GW-2580] + CC(=O)c1c(C)c2cnc(Nc3ccc(N4CCNCC4)cn3)nc2n(C2CCCC2)c1=O [Palbociclib] (partner 0.5 µM)
Method in brief: as §1

| Cell Line | relative viability (GW-2580 + Foretinib; first compound 0.08 µM) | relative viability (GW-2580 + Foretinib; first compound 0.8 µM) | relative viability (GW-2580 + Foretinib; first compound 2.53 µM) | relative viability (GW-2580 + Foretinib; first compound 8 µM) | relative viability (Fedratinib + Palbociclib; first compound 0.1 µM) | relative viability (Fedratinib + Palbociclib; first compound 0.3162 µM) | relative viability (Fedratinib + Palbociclib; first compound 1 µM) | relative viability (Fedratinib + Olaparib; first compound 0.1 µM) | relative viability (Fedratinib + Olaparib; first compound 0.3162 µM) | relative viability (Fedratinib + Olaparib; first compound 1 µM) | relative viability (Fedratinib + Trametinib; first compound 0.1 µM) | relative viability (Fedratinib + Trametinib; first compound 0.3162 µM) | relative viability (Fedratinib + Trametinib; first compound 1 µM) | relative viability (Fedratinib + Pictilisib; first compound 0.3162 µM) | relative viability (Fedratinib + Pictilisib; first compound 1 µM) | relative viability (GW-2580 + Palbociclib; first compound 0.08 µM) | relative viability (GW-2580 + Palbociclib; first compound 0.8 µM) | relative viability (GW-2580 + Palbociclib; first compound 2.53 µM) | relative viability (GW-2580 + Palbociclib; first compound 8 µM) | relative viability (Fedratinib + Pictilisib; first compound 0.1 µM) |
| --- | --- | --- | --- | --- | --- | --- | --- | --- | --- | --- | --- | --- | --- | --- | --- | --- | --- | --- | --- | --- |
| LK-2 | 1.62 | 1.45 | 1.05 | 1.2 | 0.55 | 0.581 | 0.608 | 0.611 | 0.624 | 0.698 | 0.799 | 0.8 | 0.605 | 0.563 | 0.399 | 0.877 | 0.853 | 0.426 | 0.614 | – |
| LOU-NH91 | 0.957 | 0.969 | 0.94 | 1.02 | 0.573 | 0.544 | 0.543 | 0.847 | 0.941 | 0.91 | 0.753 | 0.781 | 0.752 | 0.53 | 0.516 | 0.516 | 0.514 | 0.505 | 0.54 | 0.432 |
| LU99A | 0.834 | 0.944 | 0.724 | 0.881 | 0.469 | 0.382 | 0.392 | 0.262 | 0.264 | 0.231 | 0.577 | 0.593 | 0.477 | 0.369 | 0.217 | 0.476 | 0.444 | 0.356 | 0.376 | 0.325 |
| LXF-289 | 1.06 | 0.99 | 0.957 | 0.891 | 0.611 | 0.559 | 0.558 | 1.11 | 1.01 | 0.994 | 0.676 | 0.61 | 0.621 | 0.747 | 0.694 | 0.616 | 0.64 | 0.599 | 0.602 | 0.811 |
| NCI-H23 | 1.23 | 1.18 | 0.887 | 0.907 | 0.555 | 0.497 | 0.4 | 0.286 | 0.3 | 0.289 | 0.373 | 0.395 | 0.306 | 0.619 | 0.156 | 0.529 | 0.549 | 0.469 | 0.545 | 0.428 |
| NCI-H322M | 1.02 | 1.06 | 0.924 | 0.979 | 0.487 | 0.473 | 0.454 | 0.861 | 0.772 | 0.643 | 0.439 | 0.481 | 0.508 | 0.503 | 0.406 | 0.5 | 0.453 | 0.476 | 0.29 | 0.5 |
| NCI-H358 | 0.761 | 0.79 | 0.679 | 0.557 | 0.131 | 0.0975 | 0.107 | 0.62 | 0.536 | 0.44 | 0.126 | 0.125 | 0.111 | 0.395 | 0.26 | 0.135 | 0.147 | 0.139 | 0.15 | 0.319 |
| NCI-H441 | 1.03 | 1.16 | 1.06 | 1.1 | 0.195 | 0.176 | 0.204 | 0.607 | 0.481 | 0.525 | 0.348 | 0.345 | 0.301 | 0.42 | 0.239 | 0.228 | 0.212 | 0.206 | 0.2 | 0.441 |
| NCI-H460 | 1.02 | 1.09 | 0.987 | 0.924 | 0.163 | 0.142 | 0.06 | 0.483 | 0.395 | 0.415 | 0.163 | 0.156 | 0.061 | 0.316 | 0.295 | 0.147 | 0.339 | 0.146 | 0.248 | 0.354 |
| NCI-H520 | 0.804 | 0.627 | 0.783 | 0.762 | 0.149 | 0.214 | 0.164 | 0.306 | 0.347 | 0.29 | 0.476 | 0.801 | 0.63 | 0.315 | 0.215 | 0.228 | 0.206 | 0.228 | 0.208 | 0.267 |
| NCI-H647 | 1.25 | 1.16 | 1.13 | 1.37 | 0.346 | 0.362 | 0.364 | 0.697 | 0.467 | 0.373 | 0.521 | 0.493 | 0.366 | 0.477 | 0.309 | 0.384 | 0.398 | 0.41 | 0.317 | 0.377 |
| NCI-H650 | 1.06 | 1.05 | 0.932 | 0.94 | 0.285 | 0.345 | 0.324 | 0.367 | 0.372 | 0.379 | 1.04 | 1.04 | 0.869 | 0.701 | 0.727 | 0.314 | 0.373 | 0.28 | 0.317 | – |
| NCI-H661 | 1.08 | 0.987 | 1.03 | 0.771 | 0.397 | 0.401 | 0.359 | 0.713 | 0.77 | 0.748 | 0.511 | 0.622 | 0.409 | 0.355 | 0.329 | 0.414 | 0.434 | 0.388 | 0.326 | 0.404 |
| NCI-H727 | 0.694 | 1.05 | 0.834 | 0.777 | 0.483 | 0.652 | 0.624 | 0.732 | 0.787 | 0.741 | 0.38 | 0.426 | 0.392 | 0.317 | 0.164 | 0.576 | 0.625 | 0.606 | 0.54 | 0.378 |
| NCI-H838 | 1.15 | 1.14 | 0.997 | 1.03 | 0.197 | 0.228 | 0.164 | 0.677 | 0.837 | 0.6 | 0.475 | 0.525 | 0.542 | 0.47 | 0.213 | 0.228 | 0.25 | 0.2 | 0.251 | 0.449 |
